Measurements taken from PubChem BioAssay AID504860 (Southern Research Specialized Biocontainment Screening …, 2011).
Active and inactive are the calls of the source. How the calls were made is not given here.

Tests used:
[1] = test system: M. tuberculosis H37Rv growth inhibition, glycerol-free medium; assay: confirmation, H37Rv, purified and synthesized compounds, set 4 (AID 504860); conditions: for IC50: measured here: growth inhibition IC50
[2] = as above; conditions: M. tuberculosis H37Rv growth inhibition, glycerol-free medium; at 100 µM (top of the series)

Structure (SMILES) | IC90 [1] [µM] | IC50 [1] [µM] | inhibition [2]
CC(C)CCNC(=O)CSc1nc2ccccc2c(=O)[nH]1 | 0.21 | < 0.01 | –
O=C(CSc1nc2ccccc2c(=O)[nH]1)N1CCOCC1 | – | – | 11.1% (inactive)
CN1CCC(NC(=O)CSc2nc3ccccc3c(=O)[nH]2)CC1 | – | – | 8.01% (inactive)
CN(C(=O)CSc1nc2ccccc2c(=O)[nH]1)C1CCCCC1 | – | – | 9.68% (inactive)
Cc1c[nH]c(=S)[nH]c1=O | – | – | 2.03% (inactive)
COC(=O)C(C)Oc1ccc(Cc2ncc(C(F)(F)F)cc2Cl)cc1 (stereo not drawn) | 5.63 | 3.62 | –
Cc1ccc(NC(=O)COC(=O)CCc2c[nH]c3ccccc23)cc1[N+](=O)[O-] | 7.41 | 3.2 | –
CCC(Sc1nc2ccccc2c(=O)[nH]1)C(=O)Nc1cccc(OC)c1 (stereo not drawn) | – | – | 14.3% (inactive)
c1ccc(/N=C2\N=C(Nc3ccccn3)c3ccccc32)nc1 | 2.46 | 1.68 | –
COC(=O)c1ccc(CNc2c(N3CCCC3)c(=O)c2=O)cc1 | – | – | 4.83% (inactive)
O=c1[nH]c(=S)[nH]c2ccccc12 | – | – | 2.16% (inactive)
CC1CCN(C(=O)C2CCN(c3nnc(-n4cccc4)s3)CC2)CC1 | 7.33 | 3.2 | –
O=C(CSc1nc2ccccc2c(=O)[nH]1)NC1CCCCC1 | 0.52 | 0.31 | –
CCSc1nc(C)c(C)c(=O)[nH]1 | – | – | 2.48% (inactive)
Cc1cnc(SCC(=O)NC2CCCCC2)[nH]c1=O | – | – | 3.92% (inactive)
COc1cccc(NC(=O)CSc2nc3c(c(=O)[nH]2)CCC3)c1 | – | – | -4.12% (inactive)
O=C(CSc1nc2c(c(=O)[nH]1)CCC2)NC1CCCCC1 | < 0.01 | < 0.01 | –
Cc1cccc(/C=C/C(=O)c2ccc([N+](=O)[O-])o2)c1 | 2.22 | 1.46 | –
Cc1[nH]c2ccccc2c1C(=O)COC(=O)c1ccc([N+](=O)[O-])s1 | 5.21 | 2.53 | –
O=C(CSc1ccccn1)NC1CCCCC1 | – | – | 6.13% (inactive)

Structure (SMILES) | IC90 [1] [µM] | IC50 [1] [µM] | inhibition [2]
Cc1cccc(-c2oc3ccc(-c4ccc5c(c4)OCO5)cc3c2C#Cc2cncn2C)c1 | 3.08 | 2.5 | –
CC(C)CCNC(=O)CSc1nc2c(c(=O)[nH]1)CCC2 | 2.69 | 1.68 | –
CCC(Sc1nc2ccccc2c(=O)[nH]1)C(=O)NC1CCCCC1 (stereo not drawn) | – | – | 3.23% (inactive)
O=c1[nH]c(SCc2ccccc2Cl)nc2c1CCCC2 | – | – | 9.5% (inactive)
Cc1nc(SCC(=O)NC2CCCC2)[nH]c(=O)c1C | 15.6 | 9.11 | –
O=C(CSc1nc2ccccc2c(=O)[nH]1)NCc1ccc(Cl)cc1 | 1.58 | 1.07 | –
Cc1ccc(NC(=O)CSc2nc3ccccc3c(=O)[nH]2)cc1Cl | – | – | 7.6% (inactive)
CCSc1nc2ccccc2c(=O)[nH]1 | – | – | 10.8% (inactive)
NC(=O)CSc1nc2ccccc2c(=O)[nH]1 | – | – | 10.4% (inactive)
Cn1c(SCC(=O)NC2CCCCC2)nc2ccccc2c1=O | – | – | 6.07% (inactive)
CNC(=O)CSc1nc2ccccc2c(=O)[nH]1 | 99.1 | > 68.7 | –
COc1cccc(NC(=O)CSc2nc3ccccc3c(=O)[nH]2)c1 | – | – | 4.59% (inactive)
CCOc1ccc(-c2cc(C)[n+](CCc3ccc(OC)c(OC)c3)c(-c3ccc(OCC)cc3)c2)cc1 | 1.63 | 1.01 | –
Cc1nc(SCC(N)=O)[nH]c(=O)c1C | – | – | 4.67% (inactive)
O=C(CSc1nc2ccccc2c(=O)[nH]1)NC1CCCC1 | 0.85 | 0.43 | –
CCC(Sc1nc2c(c(=O)[nH]1)CCC2)C(=O)Nc1cccc(OC)c1 (stereo not drawn) | – | – | -0.78% (inactive)
CC(C)NC(=O)CSc1nc2ccccc2c(=O)[nH]1 | 19.3 | 11.5 | –
CCOC(=O)CSc1nc(C)c(C)c(=O)[nH]1 | – | – | 8.77% (inactive)
Cc1cc(=O)[nH]c(=S)[nH]1 | – | – | -3.23% (inactive)
Nc1c(C(=O)NC2CCCCC2)nsc1C(=O)OCC(=O)NC1CCCCC1 | 8.13 | 4.25 | –

Structure (SMILES) | IC90 [1] [µM] | IC50 [1] [µM] | inhibition [2]
CCOC1OC(=O)C(Cl)=C1Nc1ccccc1C (stereo not drawn) | 9.47 | 3.2 | –
Cc1nc(SCc2ccccc2Cl)[nH]c(=O)c1C | – | – | 6.97% (inactive)
O=C(CSc1nccc(=O)[nH]1)NC1CCCCC1 | – | – | 7.67% (inactive)
Cc1cc(Br)ccc1NC(=O)c1cnc(N2CCN(c3ccccn3)CC2)c2ccccc12 | – | 11.4 | –
Cc1nc(SCC(=O)NCCC(C)C)[nH]c(=O)c1C | 13.3 | 8.78 | –
COc1ccc(NC(=O)CSc2nc3ccccc3c(=O)[nH]2)cc1 | – | – | 11.4% (inactive)
Cc1cc(=O)[nH]c(SCC(=O)NC2CCCCC2)n1 | – | – | -0.61% (inactive)
O=C(CSc1nc2c(c(=O)[nH]1)CCCC2)NC1CCCCC1 | < 0.01 | < 0.01 | –
Cc1cc(C)n2nc(N)c(N=Nc3ccccc3)c2n1 | 6.75 | 4.45 | –
CC[N+](C)(CC)CCCCOc1ccc2c(c1)C(=O)c1cc(OCCCC[N+](C)(CC)CC)ccc1-2 | 3.06 | 2.14 | –
O=C(CSc1ncccn1)NC1CCCCC1 | – | – | 0.1% (inactive)
Cc1[nH]c(=S)[nH]c(=O)c1C | – | – | 6.28% (inactive)
CN(C)C(=O)CSc1nc2ccccc2c(=O)[nH]1 | – | – | 9.4% (inactive)
CC(Sc1nc2ccccc2c(=O)[nH]1)C(=O)NC1CCCCC1 (stereo not drawn) | – | – | 6.58% (inactive)
Cc1nc(SCC(=O)N(C)c2ccccc2)[nH]c(=O)c1C | – | – | 6.73% (inactive)
Cc1ccc(C(=O)N/N=C(/CC(=O)c2cccs2)C(F)(F)F)cc1 | 2.83 | 1.33 | –
COC(=O)C(Nc1nc(SCC(=O)NC2CCCCC2)nc2ccccc12)c1ccccc1 (stereo not drawn) | – | – | 5.93% (inactive)
CC1CCN(C(=O)CSc2nc3ccccc3c(=O)[nH]2)CC1 | – | – | 8.81% (inactive)
Nc1cc(=O)[nH]c(SCC(=O)NC2CCCCC2)n1 | – | – | -0.72% (inactive)
